Reference: paper PMC1716192, “A Plant-Derived Morphinan as a Novel Lead Compound Active against Malaria Liver Stages” (PLoS Medicine, 2006)
Entries after “also recorded” stand apart in the source; their conditions may differ.

Assays:
[1] = system: P. falciparum (NF 54 strain) hepatic stages; assay: In vitro assay for P. falciparum liver stage inhibition in primary human hepatocytes; type: cell-based; conditions: for IC50 / IC90: 120 h
Description: P. yoelii (265 BY strain) and P. falciparum (NF 54 strain) sporozoites were obtained by dissection of infected Anopheles stephensi salivary glands. Primary mouse hepatocytes were isolated as previously described and seeded in eight-well Lab-Tek plastic chamber slides (VWR, Fontenay-sous-Bois, France) previously coated with rat-tail collagen I (BD Biosciences, Le Pont de Claix, France) at a density of 10^5 cells per well. Mouse hepatocytes were cultured at 37 °C in 5% CO2 in William's E medium supplemented with 10% fetal calf serum, 1% L-glutamine, 1% sodium pyruvate, 1% insulin-transferrin-selenium, 1% nonessential amino acids, and 1% penicillin-streptomycin (all from Invitrogen, Cergy-Pontoise, France), for 24 h before inoculation of P. yoelii sporozoites (10^5 per well). Human liver fragments were collected following informed consent provided from patients undergoing a partial hepatectomy. The collection and use of these tissues were undertaken in accordance with French Government ethical regulations. Primary human hepatocytes were isolated from the healthy parts of these liver biopsies as previously described. Human hepatocytes were seeded in LabTek plastic chamber slides coated with collagen, at a density of 1.8 × 10^5 cells per well and cultured at 37 °C in 5% CO2 in the same medium as above, supplemented with 10^−7 M dexamethasone (Sigma) and 2% DMSO after complete cell adherence (12–24 h), for at least 48 h before inoculation of P. falciparum sporozoites (10^5 per well). For a standard assay, the plant extract, the purified compound, or primaquine was solubilized in DMSO, further diluted in culture medium (equal DMSO concentrations of <0.3% per well), and then added to hepatocyte cultures at the time of sporozoite inoculation. Three hours later, after sporozoite penetration into hepatocytes, cultures were washed and further incubated in the presence of the drug. Culture medium containing the appropriate drug concentration was changed daily until 48 h for P. yoelii, or until 5 d for P. falciparum. Parasites were quantified on the last day of incubation. For the in vitro timing experiments, tazopsine treatment of P. yoelii and P. falciparum cultures was undertaken for different periods during the cultivation: 0 h to 3 h, 3 h to 24 h, or 24 h to 48 h after P. yoelii sporozoite inoculation (quantification at 48 h), or 0 h to 2 d, or 3 d to 5 d after P. falciparum sporozoite inoculation (quantification at 5 d). […] Cells were stained with Evans Blue (0.4%), and parasites and cells nuclei were stained with 1 μg/ml of diamidino-phenylindole (DAPI; Sigma). Parasite numbers were counted under a fluorescence microscope with a 25× light microscope objective. IC50 values, the drug concentration at which a 50% reduction in the number of parasites was observed, as compared to the number in the DMSO control cultures, were derived from two independent experiments in which each concentration was tested in triplicate wells.
(§1) IC50 and TC50 were calculated by nonlinear regression using four-parameter logistic curves on the SigmaPlot 10.0 software (http://www.systat.com). Each IC50 or TC50 is expressed as a mean between two independent experiments, followed by the standard error of the mean.

[2] = system: primary mouse hepatocytes; assay: In vitro assay for cell viability (neutral red), mouse hepatocytes; type: cell-based; conditions: 48 h drug exposure
Description: (§2) Primary hepatocytes of mice or humans were prepared as above and seeded in 96-well plates coated with collagen, at a density of 5 × 10^4 and 7 × 10^4 cells per well, respectively. Drugs were added to the culture medium, which was changed daily after 24 h or 48 h of incubation for mouse and human hepatocytes, respectively. After 48 h of drug exposure (mouse hepatocytes) or 5 d (human hepatocytes), 50 μl of neutral red (Sigma) at 0.02% in phosphate-buffered saline (PBS) were added per well and incubated for 24 additional hours. Cultures were then washed with PBS and the neutral red extracted with 1% SDS from viable cells and quantified by measuring the OD540 on a microplate autoreader photometer (BioTek Instruments, Winooski, Vermont, United States).
as §1

[3] = system: primary human hepatocytes; assay: In vitro assay for cell viability (neutral red), human hepatocytes; type: cell-based; conditions: 5 d drug exposure
Description: as §2, §1

[4] = system: P. falciparum clone 3D7 (chloroquine sensitive) erythrocytic stages; assay: In vitro assay for P. falciparum blood stages inhibition, clone 3D7; type: cell-based
Description: (§3) P. falciparum clone 3D7 (chloroquine sensitive) and clone FCR3 (chloroquine resistant) erythrocytic stages were cultured as described, and drug antiplasmodial activity was assessed by the standard method with minor modifications. Briefly, the compounds tazopsine and NCP-tazopsine solubilized in DMSO were further diluted in RPMI before adding to parasite cultures (0.5% parasitemia, mainly young trophozoites, and 1.8% final hematocrit), in a 2-fold dilution series. Plates were maintained for 24 h at 37 °C in 5% CO2. Then 0.5 μCi of [^3H]-hypoxanthine was added to each well, and cultures were incubated for a further 24 h. The growth inhibition was determined by comparison of the radioactivity incorporated into the treated cultures with that into the control cultures, by liquid scintillation counting.

[5] = system: P. falciparum clone FCR3 (chloroquine resistant) erythrocytic stages; assay: In vitro assay for P. falciparum blood stages inhibition, clone FCR3; type: cell-based
Description: as §3

[6] = system: P. yoelii (265 BY strain) sporozoites; assay: In vivo assay: P. yoelii sporozoite challenge in mice; design: species or system Swiss mice
Description: All animal were kept and used in accordance with institutional guidelines and European regulations. Female 6-wk-old Swiss mice (René Janvier, Le Genest-Saint-Isle, France) weighing 24–31 g were randomly allotted to five groups. The drug to be tested was administered orally. Tazopsine was diluted in sterile water and NCP-tazopsine in sterile water with 10% of Tween 80 (Aldrich, Le Chesnay, France). The drugs were administrated on days −1, 0, +1, +2 (+40 h), and the mice challenged on day 0 by retro-orbital injection of P. yoelii (265 BY strain) sporozoites. Group 1 received 100 mg/kg/day of tazopsine (n = 5), and group 2 received sterile water at the same times (controls, n = 5); groups 1 and 2 were challenged with 4,000 sporozoites. Group 3 received 100 mg/kg/d of NCP-tazopsine (n = 5), group 4 received 200 mg/kg/d of NCP-tazopsine (n = 8), and group 5 received 10% Tween in sterile water (controls, n = 5); groups 3, 4, and 5 were challenged with 10,000 sporozoites. Parasites were enumerated by blinded microscopic examination of Giemsa-stained tail-blood smears collected from day 2 to day 23 postinoculation. A mouse was considered negative when no parasites could be observed in 20,000 red blood cells (50 fields under a 50× light microscope objective) on any day during the period of observation. The results presented were derived from two independent duplicate experiments.

[7] = Plasmodium falciparum, Hepatocyte
[8] = 100 mg/kg daily for 4 d oral, challenge with 4,000 P. yoelii sporozoites

Structure (SMILES)	phase of hepatic development most susceptible to inhibition ([1]; P. falciparum, exposure 0 h-2 d or 3 d-5 d)	concentration at which parasite development fully inhibited ([1]; P. falciparum-infected primary human hepatocyte cultures) [µM]	IC80 [1, 7] [µM]	IC50 [1, 7] [µM]	IC90 [1, 7] [µM]	size of surviving hepatic parasites versus control cultures ([1]; suboptimal inhibitory concentrations, 5 d)	TC50 [2] [µM]	TC50 [3]	IC50 ([4]; Plasmodium falciparum, 3D7) [µM]	IC50 ([5]; Plasmodium falciparum, FCR3) [µM]	extension of prepatent period over controls (nonprotected mice) ([6]; 100 mg/kg daily for 4 d oral, 4,000 sporozoites)	mice protected from infection [6, 8] [%]	mice that developed a blood stage parasitemia [6, 8] [%]	effect on multiplication of cultured erythrocytic P. falciparum ([4]; 3D7 line, up to concentrations of 600 μM)	effect on multiplication of cultured erythrocytic P. falciparum ([5]; FCR3 line, up to concentrations of 600 μM)	extension of prepatent period over controls (nonprotected mice) ([6]; 100 mg/kg for 4 d oral, 10,000 sporozoites) [days]	mice protected from infection ([6]; 100 mg/kg for 4 d oral, challenge with 10,000 P. yoelii sporozoites) [%]	mice developing a blood stage infection / protection after sporozoite challenge ([6]; 200 mg/kg daily over 4 d oral, challenge with 10,000 P. yoelii sporozoites)
COC1=C2[C@H]3NCC[C@]2(C[C@H](O)[C@@H]1O)c1c(ccc(OC)c1O)[C@H]3O [Tazopsine, tazopsine]	most susceptible to inhibition during the early stage of trophozoite development	≥ 28	10	4.2 ± 0.1	18.3 ± 2.8	significantly smaller	43.7 ± 1.6	28.4 ± 4.3 µM	4.7 ± 0.9	5.7 ± 2.1	about 4 d	70	30					
COC1=C2[C@@H]3[C@H](O)c4ccc(OC)c(O)c4[C@]2(CCN3C2CCCC2)C[C@H](O)[C@@H]1O [NCP-tazopsine, N-cyclopentyl-tazopsine]				42.4	95.4 ± 6.6		150.5 ± 9.5	2,549.6 ± 307.6 μM						did not have any detectable effect	did not have any detectable effect	2	60	completely protected; also recorded: none of the mice developed a blood stage infection; also recorded: fully protected
